# Reference: US20220152117A1, “METHODS OF PROMOTING CELLULAR MATURATION WITH AMPK ACTIVATORS” (UNIVERSITY OF WASHINGTON, priority 2019, published 2022)
# “And” between values parts separate entries of the source, which are not always exact repeats. Identical values can stand only once.
# Key:
# hPSC-CMs [1] = assay: Mitochondrial oxidation of glucose, Seahorse XF96 maximum respiration capacity; format: cell-based, human; details: AICAR treated vs control
# Procedure: The Seahorse XF96 extracellular flux Analyzer™ was used to assess mitochondria function with glucose as substrate. Cell preparation and treatment for this assay were the same as the palmitate assay. On the assay day, culture medium was changed to base media (unbuffered DMEM, Sigma D5030, supplemented with 2 mM glutamine, 25 mM glucose, 1 mM pyruvate) 1 hour before the assay and for the duration of the measurement. Selective inhibitors were injected during the measurements to achieve final concentrations of oligomycin at 2.5 μM, FCCP at 1 μM, rotenone at 2.5 μM, and antimycin A at 2.5 μM. The OCR values were further normalized to the number of cells present in each well, quantified by Hoechst staining. Maximal OCR was the OCR difference between uncoupler FCCP and ATPase inhibitor oligomycin. Due to variations in the absolute magnitude of OCR measurements in different experiments, the relative AICAR treated/untreated control levels were used to compare and summarize independent biological replicates (N=6).
# hiPSC-CMs = assay: mtDNA to nDNA ratio by q-PCR in cardiomyocytes; format: cell-based, human; details: relative to control hiPSC-CMs
# Text: Mitochondrial DNA (mtDNA) to nuclear DNA (nDNA) ratio was estimated by q-PCR. For this purpose, a mtDNA fragment within the NADH dehydrogenase 1 (ND 1) gene and a region of the nuclear DNA-encoded lipoprotein lipase gene (LPL) were amplified. The primer sequences for ND 1 and LPL were adapted from^30. Total DNA was extracted using Qiagen DNeasy Kit™.
# hPSC-CMs [2] = assay: Immunocytochemistry, imaging and morphological analysis (cell size, circularity index); format: cell-based, human
# Procedure: Cells were fixed in 4% paraformaldehyde for 10 min followed by PBS wash. The fixed cells were blocked with 1.5% normal goat serum for 1 hour at room temperature and incubated overnight at 4° C. with primary antibodies. Mouse anti-α-actinin (Sigma) was used. The samples were rinsed with PBS and incubated with a secondary antibody. Samples subjected to F-actin staining were incubated with TRITC-labeled phalloidin (Sigma) for 5 min at room temperature. Nuclei were stained with Hoechst 33342. Fluorescent images were acquired using a Zeiss AxioCam™ mounted on a Zeiss AxioObserver Microscope™, and confocal images were processed and quantified using NIS Elements. Each cell was analyzed for cell size and circularity index.
# [3] = system: hiPSC-derived cardiomyocytes; assay: Contractile force assessment on micropost arrays; format: cell-based, human; details: 1 mM AICAR for one week
# Procedure: Contractile force was assessed using micropost arrays, following a procedure similar to previously reported studies on cardiomyocytes^2, 31, 32. The process used to fabricate the micropost arrays is described in detail elsewhere^33, 34. The microposts (6.45 μm in height, 2.3 μm in diameter, 6 μm center-to-center post spacing) were cast onto 25 mm diameter round #1 glass coverslips (VWR®). To enable cell attachment, the tips of these microposts were stamped with 50 μg/ml of mouse laminin (Life Technologies®) via microcontact printing, while the remaining surfaces of the micropost array were fluorescently stained with BSA conjugates with Alexa Fluor 594 and blocked with 0.2% Pluronic F-127 (in PBS)^34. Twenty days following differentiation, hiPSC-derived cardiomyocytes were seeded onto the micropost arrays in Attoflour chambers at a density of approximately 500,000 cells per chamber (˜100,000 cells/cm^2), in RPMI media supplemented with 5% fetal bovine serum. After 24 hours, the medium was replaced with serum-free RPMI-B27 plus insulin, which then was exchanged every other day. Beginning two days after seeding, half of the substrates were treated with 1 mM AICAR for one week. Prior to live imaging, the media was exchanged to Tyrode's buffer. Individual cardiomyocyte twitch forces were recorded under phase light using high-speed video microscopy in a live cell chamber at 37° C., as previously described^32. Only the contractile forces of single cardiomyocytes (no junctions with adjacent cells) with obvious beating activity were assessed. Post deflections were optically measured at approximately 100 frames/sec on a Nikon Ti-E™ upright microscope with a 60× water immersion objective. A custom-written MATLAB™ code was used to compare each time frame of the video to a reference fluorescent image taken at the base of the posts. Contractile forces were subsequently calculated by multiplying the deflection of each microposts by its bending stiffness: F=kδ (1) where F is the force at a single micropost, k is the post's bending stiffness (44.54 nN/μm for this study), and δ is the horizontal distance between the centroid of the post's tip and the centroid of the post's base. The total contractile force for each cardiomyocyte was calculated as the sum of the forces at each post beneath it. The passive tension, or baseline force, was defined as the contractile force when a cardiomyocyte was at rest, i.e. in between beats. The total twitch force was defined as the difference between the peak contractile force (achieved during a twitch) and the passive tension. Additionally, the average twitch force per post was analyzed in order to normalize the total twitch force by cell area. The average twitch force per post was calculated as the total twitch force divided by the number of posts underneath a cardiomyocyte. Passive tension, total twitch force, average twitch force per post, and beating frequency were used to compare the independent biological replicates (N=2, with 16-38 cells per independent biological replicate).
# control cardiomyocytes = assay: TUNEL cell viability assay, control cardiomyocytes from normal iPSCs; format: cell-based, human; details: two weeks treatment, TUNEL with α-actinin co-stain
# Procedure: The normal and mutant Plakophilin 2 (PKP2) cells were generated as described previously^37. Induced pluripotent cells were cultured with E8 medium in Matrigel® coated plates. Cardiomyocytes were obtained using a protocol based on Lian et al^38 that involves Wnt agonist CHIR 99021 in the early stages of differentiation followed by the Wnt antagonist IWP2 under monolayer condition. Before Day 7, cells were cultured in RPMI plus B27 without insulin while on Day 7 and afterwards, EB media (KO-DMEM with 2% FBS, 1 mM NEAAs, 1× GlutaMAX, 1 mM mercaptoethanol, and penicillin/streptomycin) was used. At 30 days of differentiation, beating EBs were treated with three factors (3F) (50 μg/ml insulin, 0.5 μM dexamethasone, and 0.25 mM IBMX) or five factors (5F) (3F plus PPAR-γ agonists 5 μM rosiglitazone and 200 μM indomethacin) media as described earlier or treated with 1 mM AICAR or AICAR plus rosiglitazone and indomethacin for two weeks. TUNEL staining with In Situ Cell Death Detection Kit TMR Red™ (Roche®) was used to assess cell viability after conducting different treatment. TUNEL staining was co-stained with anti-α-actinin antibody so that cardiomyocyte-specific apoptosis could be assessed.
# L6 myotube = details: literature study (ref 44); cited from earlier work
smiles,measurement,setting,value
"NC(=O)c1ncn([C@@H]2O[C@H](CO)[C@@H](O)[C@H]2O)c1N [AICAR, 5-amino-4-imidazolecarboxamide riboside-1-β-D-ribofuranoside]",maximum mitochondrial respiration capacity,hPSC-CMs [1],significantly increased
same,increase in the ratio of mtDNA to nDNA,hiPSC-CMs,55%
same,circularity index,"hPSC-CMs [2]; AICAR-treated hPSC-CMs, control 0.51±0.01",0.40±0.02
same,cell area,"hPSC-CMs [2]; AICAR-treated hiPSC-CMs, control 1141±40",2321±120 μm^2
same,beating frequency,[3]; control 0.87±0.07,0.49±0.04 Hz
same,twitch force,[3]; control 9.7±0.7,14.1±1.6 nN/cell and ~14.1 nN/cell
same,passive tension,[3]; control 82.68±4.35,114.77±7.93 nN/cell
same,cellular size on microposts,[3]; control 213±5,260±11 μm^2
same,average twitch force per post,[3]; controls ~1.2,~1.4 nN/post
same,apoptosis in control cardiomyocytes,control cardiomyocytes,None of the treatment groups significantly leads to apoptosis
same,ERK phosphorylation in L6 myotube,L6 myotube,leads to ERK phosphorylation
